21 molecules from PubChem BioAssay AID256 (DTP/NCI, 2004) can be followed below.

Structures are written as SMILES. “And” between values parts separate entries of the source, which are not always exact repeats. Equal entries are not always repeated. Inconclusive results and toxic doses are left out.

In the test the test system is CD2F1 mice, L1210 leukemia ip, survival T/C. Kind of test: NCI In Vivo Anticancer Drug Screen. Data for tumor model L1210 Leukemia (intraperitoneal) in CD2F1 (CDF1) mice. The conditions noted are these: higher = longer survival. An outline of the steps:
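Mice carrying a transplanted tumor received test compound or vehicle alone. The value is the measurement in the treated group divided by that in the vehicle-treated control group.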

The mark [1] stands for this setting: endpoint: mean survival time, dose: 100.0 mg/kg/injection, schedule: Q01DX001 (ip), vehicle: saline with Tween-80.
Where [2] appears, read: endpoint: mean survival time, dose: 200.0 mg/kg/injection, schedule: Q01DX001 (ip), vehicle: saline with Tween-80.
[3] abbreviates: endpoint: mean survival time, dose: 400.0 mg/kg/injection, schedule: Q01DX001 (ip), vehicle: saline with Tween-80.
The mark [4] stands for this setting: endpoint: mean survival time, dose: 50.0 mg/kg/injection, schedule: Q01DX009 (ip), vehicle: saline with Tween-80.
[5] abbreviates: endpoint: mean survival time, dose: 100.0 mg/kg/injection, schedule: Q01DX009 (ip), vehicle: saline with Tween-80.
Where [6] appears, read: endpoint: mean survival time, dose: 200.0 mg/kg/injection, schedule: Q01DX009 (ip), vehicle: saline with Tween-80.
[7] abbreviates: endpoint: mean survival time, dose: 400.0 mg/kg/injection, schedule: Q01DX009 (ip), vehicle: saline with Tween-80.

`CN(C)Cc1ccc2ccccc2c1`: the T/C (endpoint: mean survival time, dose: 50.0 mg/kg/injection, schedule: Q01DX001 (ip), vehicle: saline) is 102 % of control and the T/C (endpoint: mean survival time, dose: 100.0 mg/kg/injection, schedule: Q01DX001 (ip), vehicle: saline) is 97 % of control.

For `CC(C)(C)CC(C)(C)C1=CC(=O)C(C(C)(C)CC(C)(C)C)=CC1=O`, the T/C by setting is: under setting [1], 91 % of control; under setting [2], 90 % of control; under setting [3], 86 % of control.

Take `COC(=O)N(C)c1nc(-c2ccccc2)nc2nonc12`: the T/C reads like this: (endpoint: mean survival time, dose: 12.5 mg/kg/injection, schedule: Q01DX005 (ip), vehicle: saline with Tween-80) 100 % of control; (endpoint: mean survival time, dose: 25.0 mg/kg/injection, schedule: Q01DX005 (ip), vehicle: saline with Tween-80) 96 % of control; (endpoint: mean survival time, dose: 50.0 mg/kg/injection, schedule: Q01DX005 (ip), vehicle: saline with Tween-80) 94 % of control; (endpoint: mean survival time, dose: 100.0 mg/kg/injection, schedule: Q01DX005 (ip), vehicle: saline with Tween-80) 90 % of control.

As for `CCC(C)C(=O)O[C@H]1C(=O)O[C@@H]2C[C@H]3C(C)=CC(=O)[C@@H](O)[C@]3(C)[C@H]3[C@@H](O)[C@H](O)[C@@]4(C)OC[C@]32[C@@H]14` (stereo not given in full), the T/C reads like this: (endpoint: mean survival time, dose: 2.0 mg/kg/injection, schedule: Q01DX009 (ip), vehicle: saline + alcohol) 104 % of control; (endpoint: mean survival time, dose: 4.0 mg/kg/injection, schedule: Q01DX009 (ip), vehicle: saline + alcohol) 102 % of control.

Regarding `O=C1CC2C=CC1CC2` (stereo not given), the T/C (endpoint: mean survival time, dose: 100.0 mg/kg/injection, schedule: Q04DX003 (ip), vehicle: other) is 105 % of control; the T/C (endpoint: mean survival time, dose: 200.0 mg/kg/injection, schedule: Q04DX003 (ip), vehicle: other) was 101 % of control; the T/C (endpoint: mean survival time, dose: 400.0 mg/kg/injection, schedule: Q04DX003 (ip), vehicle: other) was 100 % of control.

In the case of `CCCC/C=C\C1CCCCC1C` (stereo not given), the T/C under setting [4] is 87 % of control, the T/C under setting [5] was 96 % of control and the T/C under setting [6] is 104 % of control.

As for `Oc1ccc2cc3ccccc3cc2c1`, the T/C runs as follows: (endpoint: mean survival time, dose: 25.0 mg/kg/injection, schedule: Q01DX001 (ip), vehicle: DMSO) 104 % of control; (endpoint: mean survival time, dose: 50.0 mg/kg/injection, schedule: Q01DX001 (ip), vehicle: DMSO) 93 % of control; (endpoint: mean survival time, dose: 100.0 mg/kg/injection, schedule: Q01DX001 (ip), vehicle: DMSO) 87 % of control and 93 % of control.

Regarding `CC(=O)Nc1cc(/C=C/c2ccccc2)ccc1S(=O)(=O)c1ccc(/C=C/c2ccccc2)cc1NC(C)=O`, the T/C reads like this: under setting [5], 93 % of control; under setting [6], 96 % of control; under setting [7], 88 % of control.

With `CC12CCC(C(=O)C1=O)C2(C)C` (stereo not given), the T/C (endpoint: mean survival time, dose: 100.0 mg/kg/injection, schedule: Q04DX003 (ip), vehicle: saline with Tween-80) is 102 % of control; the T/C (endpoint: mean survival time, dose: 200.0 mg/kg/injection, schedule: Q04DX003 (ip), vehicle: saline with Tween-80) was 94 % of control; the T/C (endpoint: mean survival time, dose: 400.0 mg/kg/injection, schedule: Q04DX003 (ip), vehicle: saline with Tween-80) was 102 % of control.

As for `COc1cccc2c1C(=N)c1c(O)c3c(c(O)c1C2=O)C[C@@](O)(C(C)=O)C[C@@H]3OC1CC(N)C(O)C(C)O1` (stereo not given in full), the T/C (endpoint: mean survival time, dose: 0.5 mg/kg/injection, schedule: Q01DX009 (ip), vehicle: saline) is 121 % of control and 108 % of control; the T/C (endpoint: mean survival time, dose: 1.0 mg/kg/injection, schedule: Q01DX009 (ip), vehicle: saline) is 124 % of control; the T/C (endpoint: mean survival time, dose: 2.0 mg/kg/injection, schedule: Q01DX009 (ip), vehicle: saline) was 113 % of control and 122 % of control; the T/C (endpoint: mean survival time, dose: 4.0 mg/kg/injection, schedule: Q01DX009 (ip), vehicle: saline) was 114 % of control and 119 % of control; the T/C (endpoint: mean survival time, dose: 8.0 mg/kg/injection, schedule: Q01DX009 (ip), vehicle: saline) was 101 % of control.

`CCOc1ccc(-n2c(=O)c(N=Nc3ccccc3OC)c(O)n(-c3ccc(C)cc3)c2=S)cc1`: the T/C was 98 % of control under setting [1], 101 % of control under setting [2] and 97 % of control under setting [3].

As to `CN(CCN1CCCC1)C(=O)C(O)(c1ccccc1)c1ccccc1`, the T/C is 96 % of control (endpoint: mean survival time, dose: 100.0 mg/kg/injection, schedule: Q04DX003 (ip), vehicle: saline) and 93 % of control (endpoint: mean survival time, dose: 200.0 mg/kg/injection, schedule: Q04DX003 (ip), vehicle: saline).

For the molecule `[Cl][Pt+2][Cl].[NH-]c1cccc(C(F)(F)F)c1.[NH-]c1cccc(C(F)(F)F)c1`, the T/C runs as follows: (endpoint: mean survival time, dose: 12.5 mg/kg/injection, schedule: Q04DX003 (ip), vehicle: saline with Tween-80) 95 % of control; (endpoint: mean survival time, dose: 25.0 mg/kg/injection, schedule: Q04DX003 (ip), vehicle: saline with Tween-80) 100 % of control; (endpoint: mean survival time, dose: 50.0 mg/kg/injection, schedule: Q04DX003 (ip), vehicle: saline with Tween-80) 103 % of control.

`O.O.[Cl][Pt+2][Cl].[NH-]CC1(C[NH-])CCCCC1`: for the setting “endpoint: median survival time, dose: 3.12 mg/kg/injection, schedule: Q04DX003 (ip), vehicle: saline”, the T/C was 121 % of control.

For `O=S(=O)(Cl)OC1C2COC(O2)C(OS(=O)(=O)Cl)C1OS(=O)(=O)Cl` (stereo not given), the T/C (endpoint: mean survival time, dose: 12.5 mg/kg/injection, schedule: Q01DX009 (ip), vehicle: saline with Tween-80) was 108 % of control; the T/C (endpoint: mean survival time, dose: 25.0 mg/kg/injection, schedule: Q01DX009 (ip), vehicle: saline with Tween-80) was 103 % of control; the T/C under setting [4] was 102 % of control.

Consider `Cc1cc(NCCCN(C)C)c2ccc3c(ccc4c(NCCCN(C)C)cc(C)nc43)c2n1`, for which the T/C was 95 % of control (endpoint: median survival time, dose: 0.38 mg/kg/injection, schedule: Q01DX009 (ip), vehicle: saline); 93 % of control (endpoint: median survival time, dose: 0.75 mg/kg/injection, schedule: Q01DX009 (ip), vehicle: saline); 113 % of control (endpoint: median survival time, dose: 1.5 mg/kg/injection, schedule: Q01DX009 (ip), vehicle: saline); 110 % of control (endpoint: median survival time, dose: 3.0 mg/kg/injection, schedule: Q01DX009 (ip), vehicle: saline).

For `O=C(COc1ccc(Cl)c(Cl)c1)NCCc1ccccn1`, the T/C is, setting by setting: under setting [5], 95 % of control; under setting [6], 97 % of control; under setting [7], 95 % of control.

Consider `CCCCOCC(C)O` (stereo not given), for which the T/C is 97 % of control (endpoint: mean survival time, dose: 100.0 mg/kg/injection, schedule: Q01DX009 (ip), vehicle: saline); 101 % of control (endpoint: mean survival time, dose: 200.0 mg/kg/injection, schedule: Q01DX009 (ip), vehicle: saline); 100 % of control (endpoint: mean survival time, dose: 400.0 mg/kg/injection, schedule: Q01DX009 (ip), vehicle: saline).

For `C=C(C)C(=O)O[C@H]1[C@H]2[C@H](OC(=O)[C@H]2C)[C@H](O)[C@@H](C)[C@@H]2C=CC(=O)[C@]21C`, the T/C is 91 % of control (endpoint: mean survival time, dose: 3.13 mg/kg/injection, schedule: Q01DX009 (ip), vehicle: saline); 95 % of control (endpoint: mean survival time, dose: 6.25 mg/kg/injection, schedule: Q01DX009 (ip), vehicle: saline); 102 % of control (endpoint: mean survival time, dose: 7.5 mg/kg/injection, schedule: Q01DX009 (ip), vehicle: saline); 93 % of control (endpoint: mean survival time, dose: 12.5 mg/kg/injection, schedule: Q01DX009 (ip), vehicle: saline); 103 % of control (endpoint: mean survival time, dose: 15.0 mg/kg/injection, schedule: Q01DX009 (ip), vehicle: saline); 108 % of control (endpoint: mean survival time, dose: 25.0 mg/kg/injection, schedule: Q01DX009 (ip), vehicle: saline). Besides, under “endpoint: mean survival time, dose: 30.0 mg/kg/injection, schedule: Q01DX009 (ip), vehicle: saline”, the T/C is 102 % of control.

For the molecule `COC1OC(CO)C(O)C(O)C1O` (stereo not given) (tested in a mixture with another compound), the T/C was 90 % of control under setting [1], 90 % of control under setting [2] and 92 % of control under setting [3].

In the case of `O=C(Nc1ccc(C2=NCCN2)cc1)c1ccc(NC(=O)c2ccc(C3=NCCN3)cc2)cc1`, the T/C was 166 % of control (endpoint: median survival time, dose: 30.0 mg/kg/injection, schedule: Q01DX009 (ip), vehicle: saline) and 244 % of control (endpoint: median survival time, dose: 60.0 mg/kg/injection, schedule: Q01DX009 (ip), vehicle: saline).
